# Experimental data as given in US20150164781A1, “Personal Care Products Containing Extracts of Chinese Lantern (Physalis alkekengi)” (Kemin Industries, Inc., priority 2013, published 2015).
# Test: Microtiter plate DPPH antioxidant assay
# Settings: 0.05 mg/mL DPPH, five minutes at 25° C., absorbance 517 nm; from polynomial regression
# Procedure: HPLC grade reagent alcohol was obtained from Fisher Scientific, catalog number A995-4. 2,2-Diphenyl-1-picrylhydrazyl (DPPH) was from Fisher Scientific, catalog number AA4415003. Trolox was from Fisher Scientific, catalog number 05-402-25. Test material was prepared as in Example 1 (LumiSalisTM SE lot 592142P5, 592142P8 and 592142P9). Absorbance was measured using a Molecular Devices SpectraMax M5e plate reader (KH51-001) with a clear, flat-bottom 96-well plate, […] Science […] catalog number CC plate-PS-965-F-C-S. Masses were measured with a Mettler Toledo analytical balance (Model X5204). […] The controls and samples were all plated in triplicate and the average absorbance value was used for results calculations. The plate was shaken and incubated at 25° C. in the microplate reader for five minutes. The absorbance was measured at 517 nm. The sample concentrations (x-axis) are plotted against their respective relative average absorbance value (subtracted the average absorbance of the background from the average absorbance) at 517 nm (y-axis) and the best fit line (a polynomial fit) is calculated. The […] (50% inhibition) of each control and sample were calculated based on the polynomial regression line equation.
compound,measurement,value
"Cc1c(C)c2c(c(C)c1O)CCC(C)(C(=O)O)O2 (stereo not shown) [trolox, Trolox]",IC50 on DPPH assay,0.0010%
